The supplement of paper PMC11451515

Test system: SEM cells
Test: cell viability relative to DMSO control; higher = less cytotoxic
Conditions: 48 h
Outline: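 NOMO1 or SEM (500 cells/well) or P12-Ichikawa (1000 cells/well) leukemia cells were adapted for at least four passages in each medium. They were seeded in 1536-well plates (5 μl) and pin-dosed with library compounds in DMSO over an 11-point threefold series, 47 μM to 0.79 nM. CellTiter-Glo One luminescence was read after 48 h at 37°C. Viability is the per-plate percentage relative to DMSO wells, with cell-free wells as background.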

[1] = HPLM + 10% dialyzed FBS, 0.000781 µM
[2] = HPLM + 10% dialyzed FBS, 0.00234 µM
[3] = HPLM + 10% dialyzed FBS, 0.00702 µM
[4] = HPLM + 10% dialyzed FBS, 0.0211 µM
[5] = HPLM + 10% dialyzed FBS, 0.0632 µM
[6] = HPLM + 10% dialyzed FBS, 0.19 µM
[7] = HPLM + 10% dialyzed FBS, 0.569 µM
[8] = HPLM + 10% dialyzed FBS, 1.71 µM
[9] = HPLM + 10% dialyzed FBS, 5.12 µM
[10] = HPLM + 10% dialyzed FBS, 15.4 µM
[11] = HPLM + 10% dialyzed FBS, 46.1 µM
[12] = RPMI 5 mM glucose + 10% FBS, 0.000781 µM
[13] = RPMI 5 mM glucose + 10% FBS, 0.00234 µM
[14] = RPMI 5 mM glucose + 10% FBS, 0.00702 µM
[15] = RPMI 5 mM glucose + 10% FBS, 0.0211 µM
[16] = RPMI 5 mM glucose + 10% FBS, 0.0632 µM
[17] = RPMI 5 mM glucose + 10% FBS, 0.19 µM
[18] = RPMI 5 mM glucose + 10% FBS, 0.569 µM
[19] = RPMI 5 mM glucose + 10% FBS, 1.71 µM
[20] = RPMI 5 mM glucose + 10% FBS, 5.12 µM
[21] = RPMI 5 mM glucose + 10% FBS, 15.4 µM
[22] = RPMI 5 mM glucose + 10% FBS, 46.1 µM
[23] = RPMI 5 mM glucose + 10% dialyzed FBS, 0.000781 µM
[24] = RPMI 5 mM glucose + 10% dialyzed FBS, 0.00234 µM
[25] = RPMI 5 mM glucose + 10% dialyzed FBS, 0.00702 µM
[26] = RPMI 5 mM glucose + 10% dialyzed FBS, 0.0211 µM
[27] = RPMI 5 mM glucose + 10% dialyzed FBS, 0.0632 µM
[28] = RPMI 5 mM glucose + 10% dialyzed FBS, 0.19 µM
[29] = RPMI 5 mM glucose + 10% dialyzed FBS, 0.569 µM
[30] = RPMI 5 mM glucose + 10% dialyzed FBS, 1.71 µM
[31] = RPMI 5 mM glucose + 10% dialyzed FBS, 5.12 µM
[32] = RPMI 5 mM glucose + 10% dialyzed FBS, 15.4 µM
[33] = RPMI 5 mM glucose + 10% dialyzed FBS, 46.1 µM

Row | SMILES | cell viability [1] [%] | cell viability [2] [%] | cell viability [3] [%] | cell viability [4] [%] | cell viability [5] [%] | cell viability [6] [%] | cell viability [7] [%] | cell viability [8] [%] | cell viability [9] [%] | cell viability [10] [%] | cell viability [11] [%] | cell viability [12] [%] | cell viability [13] [%] | cell viability [14] [%] | cell viability [15] [%] | cell viability [16] [%] | cell viability [17] [%] | cell viability [18] [%] | cell viability [19] [%] | cell viability [20] [%] | cell viability [21] [%] | cell viability [22] [%] | cell viability [23] [%] | cell viability [24] [%] | cell viability [25] [%] | cell viability [26] [%] | cell viability [27] [%] | cell viability [28] [%] | cell viability [29] [%] | cell viability [30] [%] | cell viability [31] [%] | cell viability [32] [%] | cell viability [33] [%]
1 | CC(C)C(C)/C=C/C(C)C1CCC2C3=CC=C4CC(O)CCC4(C)C3CCC21C (stereo not drawn) | 92.6 | 79.7 | 86.7 | 73.2 | 82 | 77.4 | 83.7 | 76.5 | 68.6 | 81.8 | 86.4 | 99.6 | 107 | 111 | 99.8 | 97.1 | 94 | 111 | 92.9 | 98.5 | 96.1 | 102 | 88 | 107 | 95.1 | 83.1 | 107 | 91.4 | 117 | 105 | 87.2 | 88.8 | 88.3
2 | Cc1cn2c(-c3cn[nH]c3)cnc2c(Nc2ccc(C(=O)N3CCNCC3)cc2F)n1 | 105 | 106 | 119 | 103 | 109 | 105 | 107 | 108 | 87.8 | 45.9 | 17 | 98.7 | 99.8 | 107 | 98.5 | 112 | 114 | 96.7 | 109 | 90.6 | 48.3 | 11.8 | 107 | 104 | 105 | 99.5 | 122 | 102 | 114 | 98.2 | 91.7 | 49.9 | 9.99
3 | O=C(NCC[S+](=O)([O-])c1ccc(C(F)(F)F)cn1)c1ccc(Cl)cc1 | 115 | 126 | 107 | 117 | 111 | 114 | 103 | 106 | 101 | 104 | 107 | 94.5 | 111 | 89.7 | 96.7 | 86.8 | 104 | 99.2 | 81 | 80.6 | 109 | 87.1 |  |  |  |  |  |  |  |  |  |  | 
4 | C[C@H]1[C@H](NC(=O)/C(=N/OC(C)(C)C(=O)O)c2csc(N)n2)C(=O)N1[S+](=O)([O-])O | 89.9 | 102 | 100 | 99.3 | 95.2 | 103 | 100 | 93.1 | 104 | 107 | 86.1 | 98.7 | 103 | 106 | 106 | 107 | 88.3 | 104 | 110 | 104 | 101 | 79.7 | 106 | 107 | 121 | 113 | 110 | 129 | 114 | 113 | 105 | 64.8 | 88.2
5 | CC(C)OC(=O)OCOP(=O)(CO[C@H](C)Cn1cnc2c(N)ncnc21)OCOC(=O)OC(C)C.O=C(O)C=CC(=O)O | 85 | 99.6 | 28.3 | 121 | 105 | 114 | 114 | 120 | 98.2 | 105 | 35.1 | 108 | 113 | 11.7 | 119 | 119 | 124 | 115 | 115 | 109 | 94.8 | 76.1 | 77.3 | 107 | 23.8 | 102 | 113 | 104 | 97.9 | 124 | 104 | 102 | 32.2
6 | CNC(=O)c1ccc(-c2cnc3ncc(Cc4ccc5ncccc5c4)n3n2)cc1F | 108 | 126 | 122 | 119 | 128 | 117 | 124 | 137 | 120 | 127 | 124 | 110 | 129 | 100 | 127 | 133 | 124 | 126 | 125 | 124 | 133 | 105 | 116 | 121 | 129 | 126 | 129 | 130 | 144 | 146 | 131 | 118 | 132
7 | COC1CCC(CC1)N(C(=O)C2CCC(C)CC2)C3=C(SC(=C3)\C4=C\CCCC4)C(O)=O (stereo not drawn) | 111 | 120 | 119 | 117 | 113 | 117 | 104 | 115 | 112 | 84.9 | 72.1 | 114 | 111 | 124 | 128 | 144 | 134 | 122 | 121 | 121 | 82.2 | 73.5 | 116 | 114 | 112 | 128 | 138 | 108 | 120 | 137 | 104 | 75.3 | 68
8 | CC1(C)CC(=O)c2c(C(F)(F)F)nn(-c3ccc(C(N)=O)c(NC4CCC(O)CC4)c3)c2C1 (stereo not drawn) | 93.6 | 84.7 | 88.6 | 98 | 93.5 | 36.8 | 20.9 | 18.4 | 19.2 | 16.9 | 77.6 | 105 | 97.5 | 84.4 | 84.2 | 111 | 37.1 | 15.7 | 19.4 | 16.1 | 17.4 | 99.9 | 83.7 | 102 | 66.3 | 63.5 | 76.6 | 34.4 | 12.8 | 20.6 | 17.8 | 18.1 | 84.3
9 | CC1(C)Cc2c(-c3ccccc3)c(-c3ccc(Cl)cc3)c(CC(=O)O)n2C1 | 116 | 124 | 116 | 129 | 126 | 106 | 124 | 91.9 | 124 | 112 | 95.1 | 116 | 120 | 129 | 122 | 110 | 96.3 | 105 | 92.8 | 110 | 101 | 90.7 |  |  |  |  |  |  |  |  |  |  | 
10 | COc1cnc(N[S+](=O)([O-])c2ccc(N)cc2)nc1 | 75.9 | 96.2 | 85.7 | 86.1 | 93.2 | 94.6 | 91.9 | 93.1 | 109 | 102 | 103 | 94.9 | 97.4 | 99.7 | 104 | 101 | 107 | 113 | 97.3 | 107 | 102 | 105 | 75.9 | 91.6 | 106 | 104 | 93.7 | 107 | 108 | 115 | 117 | 106 | 118
11 | CCCCCOC(=O)NC\1=N\C(=O)N(\C=C1F)[C@@H]2O[C@H](C)[C@@H](O)[C@H]2O | 94 | 111 | 116 | 125 | 109 | 112 | 120 | 114 | 106 | 101 | 100 | 104 | 89.8 | 95.7 | 109 | 107 | 88.7 | 98.1 | 98.1 | 98.4 | 94.4 | 85.8 | 96.6 | 92.1 | 105 | 95.9 | 106 | 109 | 95.6 | 108 | 96.8 | 93.7 | 86.2
12 | CC(C)(C)c1cc(NC(=O)Nc2ccc(-c3cn4c(n3)sc3cc(OCCN5CCOCC5)ccc34)cc2)no1 | 66.8 | 53.7 | 45.8 | 44.3 | 32.2 | 38.2 | 46.6 | 30 | 30.1 | 26.1 | 27.8 | 80.9 | 61.9 | 67.7 | 49.8 | 42.1 | 46.3 | 49.3 | 38.9 | 43.4 | 33.5 | 27.8 | 74.2 | 49.4 | 51.3 | 36.6 | 30.4 | 36 | 31.3 | 33.6 | 27.5 | 23.5 | 24.6
13 | CC/C(=C(/c1ccc(O)cc1)c1ccc(OCCNC)cc1)c1ccccc1 | 61.4 | 99.5 | 91.2 | 102 | 103 | 115 | 101 | 96.7 | 65.6 | 59.5 | 26.1 | 66.8 | 102 | 108 | 112 | 107 | 109 | 102 | 94.8 | 65.7 | 47.8 | 25.9 | 53.5 | 106 | 88.3 | 104 | 95.8 | 123 | 97.6 | 97.6 | 69.5 | 43.5 | 38
14 | CC\1=C(C(\N=C(/N1)C2=CC(=NC=C2)Cl)C3=C(F)C=C(Cl)C=C3)/C(=O)NC4=C(F)C=C5[NH]N=CC5=C4 (stereo not drawn) | 82.1 | 84.4 | 100 | 94.9 | 93.2 | 99.6 | 104 | 103 | 81.2 | 54.5 | 10.8 | 102 | 86.8 | 97.3 | 117 | 94.5 | 99.1 | 99.9 | 85.4 | 66.3 | 51.7 | 6.87 | 87.7 | 90.3 | 103 | 108 | 102 | 122 | 96.3 | 101 | 81.3 | 55.2 | 13.5
15 | CCc1cncnc1N1CCN(Cc2nc3cc(C(F)(F)F)ccc3[nH]2)CC1 | 107 | 104 | 111 | 101 | 106 | 105 | 105 | 97.1 | 88.2 | 62.4 | 35.5 | 93.8 | 109 | 106 | 99.9 | 101 | 108 | 96.2 | 94.7 | 84.3 | 62 | 23.7 | 73.3 | 112 | 111 | 109 | 103 | 105 | 81.2 | 98.2 | 84.4 | 60.8 | 22.1
